# From US11478558B2, “Prostate-specific membrane antigen targeted high-affinity agents for endoradiotherapy of prostate cancer” (The Johns Hopkins University, priority 2017, dated 2022)
# Columns and labels:
# PSMA(+) PC3 PIP cells = assay: Cell uptake, cell surface binding and internalization in PSMA(+) PC3 PIP cells; format: cell-based, human
# PSMA(−) PC3 flu cells = assay: Cell uptake in PSMA(−) PC3 flu cells; format: cell-based, human
# PC3-ML-Luc-PSMA = assay: Treatment study in micrometastatic PC3-ML-Luc-PSMA model; format: in vivo, mouse; conditions: 37 MBq
# Text: (middle) Changes in bodyweight during the treatment study. (bottom) Kaplan-Meier survival curve for treatment study in micrometastatic PC3-ML-Luc-PSMA model, median survival for 51 days (untreated) vs 52 days for ^177Lu-PSMA-617 (37 MBq) and 56 days for 225Ac-1 (37 kBq) and 79 days for 225Ac-1 (74 kBq);
# PSMA+ PC3 PIP tumors = assay: Radiopharmaceutical therapy in PC3 PIP flank tumor growth delay model; format: in vivo, NOD/SCID mice
# Procedure: (§1) A pilot treatment study using NOD/SCID mice (n=10 per group) bearing PSMA+ PC3 PIP tumors with a single intravenous dose of 111 MBq (3 mCi) of agents ^177Lu-PSMA-617, ^177Lu-1, ^177Lu-3 and ^177Lu-5 and the control group (with saline treatment) were performed (Table 8). Volume of the all control group mice reached >5-fold of their initial tumor volume within 14 days. Mouse euthanized for treated group within 4 weeks of post-injection was mainly due to sudden body weight loss and not related to tumor growth. […] The difference among treatment groups was statistically significant (P=0.002) by the log-rank test compared to the untreated group. […] After 8-weeks, three mice from each treated group were used for detailed blood analysis and necropsy study. All animals underwent radiotherapy study had normal creatinine (0.3-0.4 mg/dL) and blood urea nitrogen levels. […] Additionally, a significant lowering of platelet for all three treated mice from ^177Lu-PSMA-617 compared control group and other treated groups.
# Median survival for the ^177Lu-PSMA-617 was 133 days vs. 234 days for ^177Lu-1.
# The remaining treated mice survived tumor-free for 10 months and were evaluated for toxicity.
# (§2) Antitumor efficacy studies were performed in PC3 PIP flank tumor growth delay model to evaluate the therapeutic efficacy of a single dose intravenous injection of ^177Lu-L1, ^177Lu-L3, ^177Lu-L5 and ^177Lu-PSMA-617 vs. saline. This was a head-to-head comparison study and same batch of tumor-bearing mice and radioactivity. The study was commenced 14-18 days post-inoculation of the xenografts, when all the mice had tumor volume of about ˜60-85 mm^3 (Table 8). All the living mice were monitored for 8 weeks to monitor the growth delay. Mice body weight and tumor volume were monitored every 3 days throughout the experiment. Endpoint criteria defined by the institute ACUC was weight loss≥15%, a tumor volume>1800 mm^3, active ulceration of the tumor or abnormal behavior indicating pain or unease. After 8-weeks, three mice from each group were submitted for detail necropsy and blood analysis. Mice group treated with ^177Lu-1 and ^177Lu-PSMA-617 were continued to monitor until the endpoint. These definitions were also used for Kaplan-Meier analysis. The probability of reaching 5 times the initial tumor volume was characterized using Kaplan-Meier curves, and comparison was performed using the log-rank test. The formula used for calculation of tumor volume was V=width^2×length/2. Toxicity of the ^177Lu-treatment groups after 8-weeks and in healthy CD-1 (n=3) mice treated with 111 MBq was evaluated by pathologic examination at the Johns Hopkins Pathology Core facility with serum metabolic panel, blood counts, and full necropsy including detailed histopathology of kidneys, salivary glands and lacrimal glands.
# [1] = Blood analysis and necropsy after radiotherapy; format: in vivo, NOD/SCID mice
# Procedure: as §1
# Significant and concerning changes were identified in testes, and lacrimal grands primarily (FIG. 25) for all treated groups. […] Parotid glands, usually adjacent to exorbital lacrimal gland, are conspicuously spared and there were mild changes in the group treated ^177Lu-PSMA-617. […] T lymphoblastic lymphoma is accelerated by irradiation and some carcinogens, and is associated with interactions of endogenous retroviruses/retroelements in NOD/SCID mouse strains. […] The cells are large up to 25 μm, with very large nuclei (for a mouse) usually 2-3 nucleoli, and a high mitotic rate. Testis and lacrimal gland degenerative changes indicate that this animal did receive a treatment similar to other treated mice.
# as §2
# [2] = system: PSMA(+) PC3 PIP and PSMA(−) PC3 flu tumor xenografts; assay: Biodistribution of 177Lu compounds (Example 5); conditions: 3 h post-injection
# [3] = 111 MBq (3 mCi), after eight weeks, n=3
compound,measurement,setting,value
"O=C([O-])CN1CCN(CC(=O)[O-])CCN(CC(=O)NCC2CCC(C(=O)N[C@@H](Cc3ccc4ccccc4c3)C(=O)NCCCC[C@H](NC(=O)N[C@@H](CCC(=O)O)C(=O)O)C(=O)O)CC2)CCN(CC(=O)[O-])CC1.[177Lu+3] (stereo partly shown) [^177Lu-PSMA-617, reference compound]",Cell uptake PC3 PIP,PSMA(+) PC3 PIP cells; 1 h,42.2 ± 0.80 % incubated dose per 1 x 10^6 cells
same,PC3 PIP cell Int (internalization),PSMA(+) PC3 PIP cells; 1 h,18.8 ± 1.2 % incubated dose per 1 x 10^6 cells
same,Blockade PC3 PIP,"PSMA(+) PC3 PIP cells; 1 h, ZJ43 10 μM",0.1 ± 0.0 % incubated dose per 1 x 10^6 cells
same,total uptake within the PSMA(+) PC3 PIP cells,PSMA(+) PC3 PIP cells; 1 h to 24 h,~40 % of the incubated dose
same,Cell uptake PC3 PIP,PSMA(+) PC3 PIP cells; 2 h,44.6 ± 1. % incubated dose per 1 x 10^6 cells
same,"PC3 PIP, line without name (position of cell internalization)",PSMA(+) PC3 PIP cells; 2 h,21.1 ± 0.9 % incubated dose per 1 x 10^6 cells
same,Cell uptake PC3 PIP,PSMA(+) PC3 PIP cells; 4 h,47.6 ± 1.13 % incubated dose per 1 x 10^6 cells
same,PC3 PIP cell int (internalization),PSMA(+) PC3 PIP cells; 4 h,26.1 ± 1.0 % incubated dose per 1 x 10^6 cells
same,Cell uptake PC3 PIP,PSMA(+) PC3 PIP cells; 24 h,54.2 ± 0.21 % incubated dose per 1 x 10^6 cells
same,PC3 PIP cell int (internalization),PSMA(+) PC3 PIP cells; 24 h,26.4 ± 0.8 % incubated dose per 1 x 10^6 cells
same,Cell uptake PC3 flu,PSMA(−) PC3 flu cells; 1 h,0.1 ± 0.01 % incubated dose per 1 x 10^6 cells
same,Cell uptake PC3 flu,PSMA(−) PC3 flu cells; 2 h,0.1 ± 0.0 % incubated dose per 1 x 10^6 cells
same,Cell uptake PC3 flu,PSMA(−) PC3 flu cells; 4 h,0.1 ± 0.06 % incubated dose per 1 x 10^6 cells
same,Cell uptake PC3 flu,PSMA(−) PC3 flu cells; 24 h,0.1 ± 0.01 % incubated dose per 1 x 10^6 cells
same,median survival,PC3-ML-Luc-PSMA,52 days
same,Median survival After 8 weeks post-treatment,PSMA+ PC3 PIP tumors; 111 MBq,Not reached
same,Tumors above stated relative tumor growth after week 8 post-treatment (Vt/V0),PSMA+ PC3 PIP tumors; 111 MBq,one tumor > 4
same,median survival,"PSMA+ PC3 PIP tumors; 111 MBq, followed to predefined end-point",133 days
same,Tumor disappear (number of mice),"PSMA+ PC3 PIP tumors; 111 MBq, week 8 post-treatment",disappear 5
same,Average final body weight,PSMA+ PC3 PIP tumors; single i.v. dose 111 MBq (3 mCi),24.6 ± 3.6 gram
same,Albumin,[1]; [3],2.9 ± 0.2 g/dL
same,Blood urea nitrogen,[1]; [3],23.3 ± 2.5 mg/dL
same,Hematocrit,[1]; [3],42.9 ± 4.5%
same,Hemoglobin,[1]; [3],12.8 ± 1.0 g/dL
same,Lymphocytes,[1]; [3],0.7 ± 0.1 K/μL
same,Mean Corpuscular Value(MCV),[1]; [3],52.2 ± 1.6 fL
same,Neutrophils,[1]; [3],3.5 ± 3.8 K/μL
same,Platelets,[1]; [3],916.0 ± 141.6 K/μL
same,Red blood cells,[1]; [3],8.2 ± 0.7 M/μL
same,Total protein,[1]; [3],5.5 ± 0.5 g/dL
same,White blood cells,[1]; [3],5.05 ± 4.1 K/μL
same,H&E pathology of testis,"[1]; 111 MBq, after 8 weeks",most significant changes in testis
same,neutrophil counts,"[1]; 111 MBq, after 8 weeks",up to 3.5±3.8 K/mL
same,Kidney uptake,[2],9.81±6.54 % ID/g
